Tested on: TNFα released by PBMCs
Assay: Inhibition of TNFα release from monocytes (PBMC) stimulated by LPS, ELISA
Format: cell-based
Conditions: Homo sapiens, LPS 0.1 μg/mL, 20 hr incubation; for IC50: concentration giving 50% TNFα inhibition; for inhibition at 3 µM: test concentration 3.0 μM; for inhibition at 3 µM / inhibition at 100 µM: read-out: Degree of inhibition (%); for inhibition at 100 µM: test concentration 100 μM
Method: Cytokine TNFα released by PBMCs in the peripheral blood after […] (LPS) stimulation in vitro was studied. The followings are experimental protocols for studying cytokine TNFα released by PBMCs, which are inhibited by compounds of the invention.
PBMCs were obtained from blood of at least three volunteers after heparin treatment, using gradient extraction. PBMCs were collected and washed three times with a 1640 medium (10% calf serum, 2 mM L-glutamine, […], 50 μg/mL streptomycin, 50 U/mL penicillin), then placed into wells of a 24-well cell culture plate. The concentration was adjusted to 1×10^6 cells/mL with 1640 culture medium. […] The resultant solution was added to the cell culture medium and the culture plate was placed in a CO2 incubator (5% CO2, 90% humidity) for 1 hour. Then, LPS (Sigma) was added and its concentration was adjusted to 0.1 μg/mL (except for the control).
After a 20 hr incubation period, the content of TNFα in supernatant of the above PBMC culture medium was assayed by ELISA kit (America Genzyme Co), using standard method. The measured value of the control well (not treated with active components), and the measured value of the test wells containing the test compounds was used to calculate the TNFα inhibition rate. The concentration of compounds giving a 50% TNFα inhibition (IC50 value) was calculated using nonlinear regression analysis. Each concentration was determined twice and an average value was calculated.

Structure (SMILES) | IC50 | inhibition at 3 µM | inhibition at 100 µM
Nc1scc2c1C(=O)N(C1CCC(=O)NC1=O)C2=O (stereo not shown) [Example 19, 1-amino-5-(2,6-dioxopiperidin-3-yl)-5H-thieno(3,4-c)pyrrole-4,6-dione] | 0.006 µM | 95% | 
COC(=O)CN1C(=O)CCC(N2C(=O)c3cscc3C2=O)C1=O (stereo not shown) [Example 15, 5-(1-methoxycarbonylmethyl-2,6-dioxopiperidin-3-yl)-5H-thieno(3,4-c)pyrrole-4,6-dione] |  |  | 18%
O=C1CCC(N2C(=O)c3cscc3C2=O)C(=O)N1 (stereo not shown) [Example 10, 5-(2,6-dioxopiperidin-3-yl)-5H-thieno(3,4-c)pyrrole-4,6-dione] |  |  | 32%
CNc1scc2c1C(=O)N(C1CCC(=O)NC1=O)C2=O (stereo not shown) [Example 22, 1-methylamino-5-(2,6-dioxopiperidin-3-yl)-5H-thieno(3,4-c)pyrrole-4,6-dione] | 0.5 µM | 62% | 
COCCN1C(=O)CCC(N2C(=O)c3cscc3C2=O)C1=O (stereo not shown) [Example 16, 5-(1-(2-methoxyethyl)-2,6-dioxopiperidin-3-yl)-5H-thieno(3,4-c)pyrrole-4,6-dione] |  |  | 28%
CC(=O)Nc1scc2c1C(=O)N(C1CCC(=O)NC1=O)C2=O (stereo not shown) [Example 24, 1-acetamido-5-(2,6-dioxopiperidin-3-yl)-5H-thieno(3,4-c)pyrrole-4,6-dione] |  | 48% | 
CC1(N2C(=O)c3csc(N)c3C2=O)CCC(=O)NC1=O (stereo not shown) [Example 27, 1-amino-5-(3-methyl-2,6-dioxopiperidin-3-yl)-5H-thieno(3,4-c)pyrrole-4,6-dione] | 0.05 µM | 84% | 
CN1C(=O)CCC(N2C(=O)c3csc(N)c3C2=O)C1=O (stereo not shown) [Example 31, 1-amino-5-(1-methyl-2,6-dioxopiperidin-3-yl)-5H-thieno(3,4-c)pyrrole-4,6-dione] | 0.35 µM | 71% | 
O=C1CCC(N2C(=O)c3csc([N+](=O)[O-])c3C2=O)C(=O)N1 (stereo not shown) [Example 18, 1-nitro-5-(2,6-dioxopiperidin-3-yl)-5H-thieno(3,4-c)pyrrole-4,6-dione] |  |  | 28%
CN1C(=O)CCC(N2C(=O)c3cscc3C2=O)C1=O (stereo not shown) [Example 13, 5-(1-methyl-2,6-dioxopiperidin-3-yl)-5H-thieno(3,4-c)pyrrole-4,6-dione] |  |  | 20%
O=C1CCC(N2C(=O)c3ccccc3C2=O)C(=O)N1 (stereo not shown) [Thalidomide, reference compound] | 183 µM |  | 22%
